Measurements from ChEMBL document CHEMBL1157160, “Antioxidant and cytotoxic activities of canadine: biological effects and structural aspects” (Bioorg Med Chem, 2008).
Values after ≈ are worked out from the molar mass of the structure shown.

What was measured:
HepG2 [1] = test: Cytotoxicity against human HepG2 cells after 24 hrs by MTT assay; assay type: functional, cell-based
Hepatocyte [2] = test: Cytotoxicity against Sprague-Dawley rat primary hepatocytes after 24 hrs by MTT assay; assay type: cell-based
HeLa [3] = test: Cytotoxicity against human HeLa cells after 24 hrs by MTT assay; assay type: functional, cell-based
HepG2 [4] = test: Cytotoxicity against human HepG2 cells at 300 ug/ml after 24 hrs by MTT assay; assay type: functional, cell-based
Hepatocyte [5] = test: Antioxidant effect in Sprague-Dawley rat primary hepatocytes assessed as prevention of tert-butyl hydroperoxide-induced reduction in glutathione content administered 100 ug/ml for 7 hrs followed by combined exposure of tert-butyl hydroperoxide and drug for 12 hrs; assay type: functional; design: scale not given: the % may be the effect or the level left
Hepatocyte [6] = test: Cytotoxicity against rat primary hepatocytes at 300 ug/ml after 24 hrs by MTT assay; assay type: cell-based
Hepatocyte [7] = test: Antioxidant effect in Sprague-Dawley rat primary hepatocytes assessed as decrease in tert-butyl hydroperoxide-induced malondialdehyde accumulation administered 50 ug/ml for 7 hrs followed by combined exposure of tert-butyl hydroperoxide and drug for 12 hrs; assay type: functional; design: scale not given: the % may be the effect or the level left
Hepatocyte [8] = test: Antioxidant effect in Sprague-Dawley rat primary hepatocytes assessed as decrease in tert-butyl hydroperoxide-induced malondialdehyde accumulation administered 100 ug/ml for 7 hrs followed by combined exposure of tert-butyl hydroperoxide and drug for 12 hrs; assay type: functional; design: scale not given: the % may be the effect or the level left
HeLa [9] = test: Cytotoxicity against human HeLa cells at 300 ug/ml after 24 hrs by MTT assay; assay type: functional, cell-based
Hepatocyte [10] = test: Antioxidant effect in Sprague-Dawley rat primary hepatocytes assessed as prevention of tert-butyl hydroperoxide-induced reduction in glutathione content administered 50 ug/ml for 7 hrs followed by combined exposure of tert-butyl hydroperoxide and drug for 12 hrs; assay type: functional; design: scale not given: the % may be the effect or the level left
[11] = Homo sapiens, HepG2, 24 h, read-out: IC50
[12] = Homo sapiens, HeLa, 24 h, read-out: IC50

`COc1ccc2cc3[n+](cc2c1OC)CCc1cc2c(cc1-3)OCO2.[Cl-]` [BERBERINE CHLORIDE] showed an IC50 (HepG2 [1]; hepg2) of 146 µg/mL, an IC50 (Hepatocyte [2]) of 26.5 µg/mL and an IC50 (HeLa [3]; hela) of 138 µg/mL.

With `c1ccc2c(c1)C[C@H]1NCCc3cc4c(c-2c31)OCO4` [ANONAINE] the IC50 (HepG2 [1]; [11]) was 33.5 µg/mL (≈ 126 µM), the IC50 (Hepatocyte [2]) was 70.3 µg/mL (≈ 265 µM) and the IC50 (HeLa [3]; [12]) was 24.8 µg/mL (≈ 93.5 µM).

In the case of `COc1ccc2c(c1OC)CN1CCc3cc4c(cc3[C@@H]1C2)OCO4` [CANADINE], the Activity (HepG2 [4]) was “Not toxic”, the Activity (Hepatocyte [5]) was greater than 95% and the Activity (Hepatocyte [6]) was “Non-toxic”. The Activity (Hepatocyte [7]) was greater than 80%, the Activity (Hepatocyte [8]) was greater than 80% and the Activity (HeLa [9]) was “Not toxic”. It also gave an Activity (Hepatocyte [10]) greater than 95%.

Work on `COc1cc2c3cc1Oc1c(O)c(OC)cc4c1[C@H](Cc1ccc(OC)c(c1)-c1cc(ccc1O)C[C@H]3N(C)CC2)N(C)CC4` [ANTIOQUINE] yielded an IC50 (HepG2 [1]; [11]) of 460 µg/mL (≈ 756 µM), an IC50 (Hepatocyte [2]) of 4.06 µg/mL (≈ 6.67 µM) and an IC50 (HeLa [3]; [12]) of 548 µg/mL (≈ 901 µM).
